Tests used:
[1] = system: MOLM-14 D835Y (endogenous FLT3 ITD and transfected FLT3 D835Y); experiment: MOLM-14 D835Y cell proliferation assay (CellTiter-Glo); format: cell-based; details: Homo sapiens, MOLM-14, 72 h; 3 d growth, GMean
In short: (§1)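 MOLM-14 cells (FLT3 ITD) carrying D835Y or F691L, 1×10^4 cells/well, eight 1:3 dilutions from 1 μM final, 0.2% DMSO, 3 days at 37 °C, 5% CO2. Viability by CellTiter-Glo luminescence (ATP content); IC50 from concentration-response.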

[2] = system: MOLM-14 F691L (endogenous FLT3 ITD and transfected FLT3 F691L); experiment: MOLM-14 F691L cell proliferation assay (CellTiter-Glo); format: cell-based; details: Homo sapiens, MOLM-14, 72 h; 3 d growth, GMean
In short: as §1

BA/F3-FLT3-ITD + D835Y = biological target: T1, BA/F3-FLT3-ITD + D835Y (Homo sapiens, UniProt P36888, D835Y, cells depend on it, form not given); experiment: Engineered BA/F3 cell growth assay, FLT3 ITD/D835Y; format: cell-based, murine; details: 3 d growth
T1 sequence (P36888 with tags, fused parts or gaps INS600HVDFREYEYD/D835Y): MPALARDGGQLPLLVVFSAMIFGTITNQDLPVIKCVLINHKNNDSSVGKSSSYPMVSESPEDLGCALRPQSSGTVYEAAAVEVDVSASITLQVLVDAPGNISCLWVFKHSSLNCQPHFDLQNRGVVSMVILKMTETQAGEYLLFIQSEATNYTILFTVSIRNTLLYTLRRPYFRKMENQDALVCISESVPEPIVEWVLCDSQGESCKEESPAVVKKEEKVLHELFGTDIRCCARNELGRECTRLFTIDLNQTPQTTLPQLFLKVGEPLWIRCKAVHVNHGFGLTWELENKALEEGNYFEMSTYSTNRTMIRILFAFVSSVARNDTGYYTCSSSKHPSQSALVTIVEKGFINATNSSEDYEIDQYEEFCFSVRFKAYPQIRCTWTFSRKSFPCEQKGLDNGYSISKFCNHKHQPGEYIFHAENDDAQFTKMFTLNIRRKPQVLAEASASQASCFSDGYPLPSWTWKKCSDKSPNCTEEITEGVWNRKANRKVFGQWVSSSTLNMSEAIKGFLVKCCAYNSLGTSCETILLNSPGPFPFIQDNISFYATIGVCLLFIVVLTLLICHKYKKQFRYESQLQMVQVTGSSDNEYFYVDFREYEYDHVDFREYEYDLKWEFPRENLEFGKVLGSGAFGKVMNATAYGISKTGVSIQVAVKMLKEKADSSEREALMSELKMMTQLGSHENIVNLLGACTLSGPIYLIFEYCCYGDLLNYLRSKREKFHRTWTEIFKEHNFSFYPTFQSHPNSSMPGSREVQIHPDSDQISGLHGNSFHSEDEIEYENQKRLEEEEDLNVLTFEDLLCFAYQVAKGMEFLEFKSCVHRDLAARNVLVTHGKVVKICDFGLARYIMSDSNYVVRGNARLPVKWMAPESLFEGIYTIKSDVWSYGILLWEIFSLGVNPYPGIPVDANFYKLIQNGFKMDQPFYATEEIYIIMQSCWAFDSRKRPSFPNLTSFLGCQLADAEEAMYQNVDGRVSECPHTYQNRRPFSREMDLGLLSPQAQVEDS
In short: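 IC50 derived from CellTiter-Glo ATP luminescence after 3 days at 37 °C, 5% CO2, over eight 1:3 dilutions from 1 μM (0.2% DMSO final). Cells: IL-3-independent murine Ba/F3 expressing full-length FLT3 ITD/D835Y, 1×10^4 per well.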

O=C(Cc1ccc(-c2cnc(Nc3cnn4ccccc34)nc2)c(F)c1)Nc1cncc(C(F)(F)F)c1 [Compound P-0071, 2-[3-fluoro-4-[2-(pyrazolo[1,5-a]pyridin-3-ylamino)pyrimidin-5-yl]phenyl]-N-[5-(trifluoromethyl)-3-pyridyl]acetamide]
0.0001 to 10 µM: IC50 [1] | IC50 [2] | GI50 (BA/F3-FLT3-ITD + D835Y)

Cc1ncc(NC(=O)Cc2ccc(-c3cnc(Nc4cnn(C)c4C)nc3)cc2F)cc1C(F)(F)F [Compound P-0076, 2-[4-[2-[(1,5-dimethylpyrazol-4-yl)amino]pyrimidin-5-yl]-2-fluoro-phenyl]-N-[6-methyl-5-(trifluoromethyl)-3-pyridyl]acetamide]
0.0001 to 10 µM: IC50 [1] | IC50 [2] | GI50 (BA/F3-FLT3-ITD + D835Y)

O=C(Cc1ccc(-c2cnc(Nc3cnn4ccccc34)nc2)cc1F)Nc1cncc(C(F)(F)F)c1 [Compound P-0058, 2-[2-fluoro-4-[2-(pyrazolo[1,5-a]pyridin-3-ylamino)pyrimidin-5-yl]phenyl]-N-[5-(trifluoromethyl)-3-pyridyl]acetamide]
0.0001 to 10 µM: IC50 [1] | IC50 [2] | GI50 (BA/F3-FLT3-ITD + D835Y)

O=C(Cc1ccc(-c2cnc3[nH]cc(Cl)c3n2)cc1F)Nc1cncc(C(F)(F)F)c1 [Compound P-0061, 2-[4-(7-chloro-5H-pyrrolo[2,3-b]pyrazin-2-yl)-2-fluoro-phenyl]-N-[5-(trifluoromethyl)-3-pyridyl]acetamide]
0.0001 to 10 µM: IC50 [1] | IC50 [2] | GI50 (BA/F3-FLT3-ITD + D835Y)

O=C(Cc1ccc(-c2cnc3[nH]nc(C4CC4)c3c2)cc1)Nc1cncc(C(F)(F)F)c1 [Compound P-0073, 2-[4-(3-cyclopropyl-1H-pyrazolo[3,4-b]pyridin-5-yl)phenyl]-N-[5-(trifluoromethyl)-3-pyridyl]acetamide]
0.0001 to 10 µM: IC50 [1] | IC50 [2] | GI50 (BA/F3-FLT3-ITD + D835Y)

CCC(=O)c1c[nH]c2ncc(-c3ccc(CC(=O)Nc4cncc(C(F)(F)F)c4)c(F)c3)cc12 [Compound P-0068, 2-[2-fluoro-4-(3-propanoyl-1H-pyrrolo[2,3-b]pyridin-5-yl)phenyl]-N-[5-(trifluoromethyl)-3-pyridyl]acetamide]
0.0001 to 10 µM: IC50 [1] | IC50 [2] | GI50 (BA/F3-FLT3-ITD + D835Y)

Cc1ncc(NC(=O)Cc2ccc(-c3cnc4c(c3)C3(CC3)C(=O)N4)cc2F)cc1C(F)(F)F [Compound P-0057, 2-[2-fluoro-4-(2-oxospiro[1H-pyrrolo[2,3-b]pyridine-3,1′-cyclopropane]-5-yl)phenyl]-N-[6-methyl-5-(trifluoromethyl)-3-pyridyl]acetamide]
0.0001 to 10 µM: IC50 [1] | IC50 [2] | GI50 (BA/F3-FLT3-ITD + D835Y)

O=C(Cc1ccc(-c2cnc3[nH]cc(F)c3c2)cc1F)Nc1cncc(C(F)(F)F)c1 [Compound P-0053, 2-[2-fluoro-4-(3-fluoro-1H-pyrrolo[2,3-b]pyridin-5-yl)phenyl]-N-[5-(trifluoromethyl)-3-pyridyl]acetamide]
0.0001 to 10 µM: IC50 [1] | IC50 [2] | GI50 (BA/F3-FLT3-ITD + D835Y)

Cc1ncc(NC(=O)Cc2ccc(-c3cnc4[nH]cc(Cl)c4n3)cc2F)cc1C(F)(F)F [Compound P-0059, 2-[4-(7-chloro-5H-pyrrolo[2,3-b]pyrazin-2-yl)-2-fluoro-phenyl]-N-[6-methyl-5-(trifluoromethyl)-3-pyridyl]acetamide]
0.0001 to 10 µM: IC50 [1] | IC50 [2] | GI50 (BA/F3-FLT3-ITD + D835Y)

O=C(Cc1ccc(-c2cnc(Nc3cnn4ccccc34)nc2)cc1)Nc1cncc(C(F)(F)F)c1 [Compound P-0074, 2-[4-[2-(pyrazolo[1,5-a]pyridin-3-ylamino)pyrimidin-5-yl]phenyl]-N-[5-(trifluoromethyl)-3-pyridyl]acetamide]
0.0001 to 10 µM: IC50 [1] | IC50 [2] | GI50 (BA/F3-FLT3-ITD + D835Y)

Cn1cc(Nc2ncc(-c3ccc(CC(=O)Nc4cncc(C(C)(F)F)c4)c(F)c3)cn2)cn1 [Compound P-0090, N-[5-(1,1-difluoroethyl)-3-pyridyl]-2-[2-fluoro-4-[2-[(1-methylpyrazol-4-yl)amino]pyrimidin-5-yl]phenyl]acetamide]
0.0001 to 10 µM: IC50 [1] | IC50 [2] | GI50 (BA/F3-FLT3-ITD + D835Y)

O=C(Cc1ccc(-c2cnc3[nH]cc(F)c3c2)cc1F)Nc1cc(Cl)c(C2CC2)cn1 [Compound P-0044, N-(4-chloro-5-cyclopropyl-2-pyridyl)-2-[2-fluoro-4-(3-fluoro-1H-pyrrolo[2,3-b]pyridin-5-yl)phenyl]acetamide]
0.0001 to 10 µM: IC50 [1] | IC50 [2] | GI50 (BA/F3-FLT3-ITD + D835Y)

COc1ncc(NC(=O)Cc2ccc(-c3cnc4[nH]cc(Cl)c4n3)cc2F)cc1C(F)(F)F [Compound P-0047, 2-[4-(7-chloro-5H-pyrrolo[2,3-b]pyrazin-2-yl)-2-fluoro-phenyl]-N-[6-methoxy-5-(trifluoromethyl)-3-pyridyl]acetamide]
0.0001 to 10 µM: IC50 [1] | IC50 [2] | GI50 (BA/F3-FLT3-ITD + D835Y)

CCC(=O)c1c[nH]c2ncc(-c3ccc(CC(=O)Nc4cnc(C)c(C(F)(F)F)c4)c(F)c3)cc12 [Compound P-0070, 2-[2-fluoro-4-(3-propanoyl-1H-pyrrolo[2,3-b]pyridin-5-yl)phenyl]-N-[6-methyl-5-(trifluoromethyl)-3-pyridyl]acetamide]
0.0001 to 10 µM: IC50 [1] | IC50 [2] | GI50 (BA/F3-FLT3-ITD + D835Y)

Cc1ncc(NC(=O)Cc2ccc(-c3cnc4[nH]c(Cl)cc4c3)cc2F)cc1C(F)(F)F [Compound P-0067, 2-[4-(2-chloro-1H-pyrrolo[2,3-b]pyridin-5-yl)-2-fluoro-phenyl]-N-[6-methyl-5-(trifluoromethyl)-3-pyridyl]acetamide]
0.0001 to 10 µM: IC50 [1] | IC50 [2] | GI50 (BA/F3-FLT3-ITD + D835Y)

CC(=O)c1c[nH]c2ncc(-c3ccc(CC(=O)Nc4cncc(C(F)(F)F)c4)c(F)c3)cc12 [Compound P-0055, 2-[4-(3-acetyl-1H-pyrrolo[2,3-b]pyridin-5-yl)-2-fluoro-phenyl]-N-[5-(trifluoromethyl)-3-pyridyl]acetamide]
0.0001 to 10 µM: IC50 [1] | IC50 [2] | GI50 (BA/F3-FLT3-ITD + D835Y)

Cn1cnc(Nc2ncc(-c3cc(F)c(CC(=O)Nc4cncc(C(F)(F)F)c4)cc3F)cn2)c1 [Compound P-0078, 2-(2,5-difluoro-4-(2-((1-methyl-1H-imidazol-4-yl)amino)pyrimidin-5-yl)phenyl)-N-(5-(trifluoromethyl)pyridin-3-yl)acetamide]
0.0001 to 10 µM: IC50 [1] | IC50 [2] | GI50 (BA/F3-FLT3-ITD + D835Y)

COc1ncc(NC(=O)Cc2ccc(-c3cnc4[nH]c(Cl)cc4c3)cc2F)cc1C(F)(F)F [Compound P-0038, 2-[4-(2-chloro-1H-pyrrolo[2,3-b]pyridin-5-yl)-2-fluoro-phenyl]-N-[6-methoxy-5-(trifluoromethyl)-3-pyridyl]acetamide]
0.0001 to 10 µM: IC50 [1] | IC50 [2] | GI50 (BA/F3-FLT3-ITD + D835Y)
